# According to US5591828A, “Bispecific and oligospecific mono-and oligovalent receptors, the preparation and use thereof” (Behringwerke Aktiengesellschaft, priority 1989, dated 1997):
# Key:
# Assay in all cases: Quantitative inhibition ELISA for MAbs by DTPA or EDTA complexes
# Type in all cases: binding, mouse (Balb/c)
# [1] = target: MAb 2050/532 (anti-DTPA/EDTA monoclonal antibody); conditions: solid phase Y-benzyl-DTPA-HSA, preincubation with competitor at RT for 30'
# Description: (§1) Isothiocyanatobenzyl-DTPA (formula 2) was covalently coupled as hapten onto human serum albumin (HSA as carrier) with a degree of derivatization of 19 benzyl-DTPA molecules per HSA molecule by the method described in (N. W. Brechbiel et al., Inorganic Chemistry25, (1986) 2772-2781). 20 μg of this hapten-carrier complex, into which cold Y had been complexed, were injected s.c. on day 0 with Freund's adjuvant, on day 7 and 14 with incomplete Freund's adjuvant and on day 21 with PBS into Balb/c mice. On day 24, the spleens of the mice with the highest anti-DTPA antibody titers were fused with the SP2/0-Ag14 myeloma cell line (Shulman et al., Nature 276, (1978) 269). The resulting hybridomas were tested in a DTPA-specific ELISA for the production of high-affinity MAbs against DTPA and EDTA. The ELISA comprised a solid phase which was loaded with a solution containing HSA-benzyl-DTPA-Y. The supernatant containing the MAb to be tested was preincubated with free chelate or its metal ion complexes, and its binding to the specific solid phase was measured. An enzyme amplification system which is coupled to an anti-mouse immunoglobulin antibody was used for this purpose. The details of these methods are described in Annex 1a and 1b.
# (§2) Quantitative inhibition ELISA for MAbs by DTPA or EDTA complexes
# (§3) 1) 50 μl of Y-benzyl-DTPA-HSA 19 conjugate with a concentration of 1 μg of conjugate per ml of PBS, pH 7.2, are pipetted into each well and incubated at room temperature (RT) overnight.
# (§4) 5) Preincubation of the diluted hybridoma supernatant with the competitor is carried out during the blocking (see Annex 1b).
# (§5) 6) 50 μl of the appropriately prediluted and preincubated hybridoma supernatants to be tested are applied to each well and incubated at RT for 30 min.
# (§6) 15) The extinctions are measured at 492 nm in a […]® […]. 50 μl of NADP with 50 μl of solution and 1200 μl of 0.1N H2 SO4 are employed as blank.
# (§7) Preincubation of the hybridoma supernatant with the competitor
# (§8) On the basis of the ELISA concentration determination, the hybridoma supernatants are diluted to 1.25 μg/ml in PBS without Ca^++ and Mg^++.
# (§9) The hybridoma supernatant is incubated with 100,000-fold, 50,000-fold, 10,000-fold, 5,000-fold, 1,000-fold and 100-fold excess of competitor at RT for 30'. 50 μl of this are pipetted into the ELISA (see Annex 1a, no. 6).
# (§10) The complexing constant of DTPA or EDTA to the metal ions depicted in Table I is extremely high so that complete saturation has to be expected on equimolar mixing of DTPA or EDTA with these metal ions. For this reason, the corresponding metal ions were incubated in a 3-fold molar excess with the DTPA or EDTA. As an example, 170 μl of a 10 mM cadmium sulfate solution in double-distilled water (see Annex 1d) were incubated with 30 μl of a 0.028 molar DTPA stock solution in double-distilled water at RT for 5'. Mixing 10 μl of this competitor solution with the hybridoma supernatant leads to a 100,000-fold excess of competitor over the MAb contained in the hybridoma supernatant. Lower competitor to MAb ratios were achieved by diluting the competitor solution in the particular salt ion solution appropriately for the desired molar excess (see Annex 1b).
# (§11) Quantitative assay of inhibition of MAb by DTPA and EDTA
# (§12) Molar excess of competitor which leads to 50% inhibition of the binding to the solid-phase antigen.
# [2] = target: MAb 2050/534 (anti-DTPA/EDTA monoclonal antibody); conditions: solid phase Y-benzyl-DTPA-HSA, preincubation with competitor at RT for 30'
# Description: as §1, §2, §3, §4, §5, §6, §7, §8, §9, §10, §11, §12
# [3] = target: MAb 2050/535 (anti-DTPA/EDTA monoclonal antibody); conditions: solid phase Y-benzyl-DTPA-HSA, preincubation with competitor at RT for 30'
# Description: as §1, §2, §3, §4, §5, §6, §7, §8, §9, §10, §11, §12
# [4] = target: MAb BW 2050/174 (anti-DTPA/EDTA monoclonal antibody); conditions: MAb 2050/174; solid phase Y-benzyl-DTPA-HSA; preincubation with competitor at RT for 30'
# Description: as §1, §2, §3, §4, §5, §6, §7, §8, §9, §10, §11, §12
# [5] = target: MAb 2050/531 (anti-DTPA/EDTA monoclonal antibody); conditions: solid phase Y-benzyl-DTPA-HSA, preincubation with competitor at RT for 30'
# Description: as §1, §2, §3, §4, §5, §6, §7, §8, §9, §10, §11, §12
SMILES,Molar excess of competitor which leads to 50% inhibition of the binding to the solid-phase antigen [1],Molar excess of competitor which leads to 50% inhibition of the binding to the solid-phase antigen [2],Molar excess of competitor which leads to 50% inhibition of the binding to the solid-phase antigen [3],Molar excess of competitor which leads to 50% inhibition of the binding to the solid-phase antigen [4],Molar excess of competitor which leads to 50% inhibition of the binding to the solid-phase antigen [5]
O=C([O-])CN(CCN(CC(=O)O)CC(=O)O)CC(=O)[O-].[Zn+2] [EDTA-Zn],10^3 molar excess,10^3 molar excess,10^2 molar excess,10^3 molar excess,10^3 molar excess
"O=C(O)CN(CCN(CC(=O)O)CC(=O)O)CCN(CC(=O)O)CC(=O)O [DTPA, diethylenetriaminepentaacetate]",10^3 molar excess,10^3 molar excess,10^3 molar excess,10^3 molar excess,10^3 molar excess
O=C([O-])CN(CCN(CCN(CC(=O)O)CC(=O)O)CC(=O)O)CC(=O)[O-].[Zn+2] [DTPA-Zn],5 × 10^3 molar excess,5 × 10^3 molar excess,10^3 molar excess,5 × 10^3 molar excess,5 × 10^3 molar excess
"O=C(O)/C=C(\CC(=O)O)C(=O)O [Trans-aconitic acid, transaconitic acid]",> 10^5 molar excess,> 10^5 molar excess,> 10^5 molar excess,> 10^5 molar excess,> 10^5 molar excess
O=C([O-])CN(CCN(CC(=O)[O-])CC(=O)[O-])CCN(CC(=O)[O-])CC(=O)[O-].[Y+3] [DTPA-Y],5 × 10^4 molar excess,5 × 10^4 molar excess,10^4 molar excess,10^4 molar excess,5 × 10^4 molar excess
"NCCN [1,2-Diaminoethane, 1,2-diaminoethane]",> 10^5 molar excess,> 10^5 molar excess,> 10^5 molar excess,> 10^5 molar excess,> 10^5 molar excess
O=C([O-])CN(CCN(CC(=O)[O-])CC(=O)[O-])CC(=O)[O-].[Cu+2] [EDTA-Cu],5 × 10^3 molar excess,10^3 molar excess,10^2 molar excess,10^3 molar excess,10^2 molar excess
